Results: patent US20240368133A1, “Compounds for the Treatment of Pain, in Particular, Neuropathic Pain, and/or Other Diseases or Disorders that are Associated with AT2R and/or AT2R Mediated Signaling” (Confo Therapeutics N.V., priority 2021, published 2024)
≈ marks a conversion by molar mass, not a printed value. Like-named read-outs stand apart in the source and are kept apart here.

Columns and labels:
[1] = Liver microsomal stability, human; type: in vitro ADME; settings: pH 7.4, liver microsomes
Procedure: (§1) Microsomal incubations were carried out in 96-well plates in 5 aliquots of 40 μL each (one for each time point). Liver microsomal incubation medium contained PBS (100 mM, pH 7.4), MgCl2 (3.3 mM), NADPH (3 mM), glucose-6-phosphate (5.3 mM), glucose-6-phosphate dehydrogenase (0.67 units/ml) with 0.42 mg of liver microsomal protein per ml. Control incubations were performed replacing the NADPH-cofactor system with PBS. Test compound (2 μM, final solvent concentration 1.6%) was incubated with microsomes at 37° C., shaking at 100 rpm. Incubations were performed in duplicates. Five time points over 40 minutes have been analyzed. The reactions were stopped by adding 12 volumes of 90% acetonitrile-water to incubation aliquots, followed by protein sedimentation by centrifuging at 5500 rpm for 3 minutes. […]. Supernatants were analyzed using the HPLC system coupled with tandem mass spectrometer (API3000 PE Sciex). Acquisition and analysis of the data were performed using Analyst 1.5.2 software (PE Sciex). The elimination constant (kel), half-life (t½) and intrinsic clearance (Clint) were determined in plot of […] versus time, using linear regression analysis:
(§2) A 10 mM stock solution of compound in DMSO is diluted three-fold in DMSO. This pre-diluted compound solution is then further diluted to 2 μM in a 50 mM phosphate buffer (PBS, pH 7.4) and pre-warmed at 37° C. This compound dilution is mixed F2 with microsomal/cofactor mix at 37° C. under shaking at 300 rpm. Final reaction conditions are: 100 μL incubation volume, 1 μM of test compound (in duplicate), <0.1% DMSO, 0.5 mg/mL microsomes, 0.6 U/mL Glucose-6-phosphate-dehydrogenase (G6PDH, Roche, 10127671001), 3.3 mM MgCl2 (Sigma, M2670), 3.3 mM glucose-6-phosphate (Sigma, G-7879) and 1.3 mM NADP+ (Sigma, N-0505).
(§3) After 60 min of incubation at 300 rpm and 37° C., the reaction was stopped with 3 volumes of STOP solution (acetonitrile/MeOH 2/1 with diclofenac as internal standard). For the time point zero, 3 volumes of STOP solution were added to the compound dilution before the microsome mix was added. Six time points over 60 minutes have been analyzed. The samples of all time points were centrifuged, filtered and the supernatant analyzed by LCMS/MS (systems API4000).
(§4) The instrument responses (peak areas/IS peak area) were referenced to the zero time-point samples (considered as 100%) in order to determine the percentage of compound remaining.
(§5) Testosterone (1 μM) and Propranolol and Caffeine (1 μM) were used as reference compounds, being unstable and stable compounds respectively. If the microsomal stability values for these controls are not in the range determined by the historical data, the assay is not validated. The solubility of the compound in the final test concentration in 50 mM buffer pH 7.4 is checked by microscope to indicate whether precipitation is observed or not. If a precipitate is observed, no data of microsomal stability is generated.

Kinetic solubility = type: physicochemical; settings: kinetic from dmso stock
Procedure: Starting from a 20 mM stock solution of test compound in 100% DMSO, dilutions were prepared to a theoretical concentration of 400 μM in duplicates in phosphate-buffered saline pH 7.4 (PBS) (138 mM NaCl, 2.7 mM KCl, 10 mM K-phosphate) and 100 mM citrate buffer pH 3.0 with 2% final DMSO.
The experimental compound dilutions in PBS and citrate buffer were further allowed to equilibrate at 25° C. on a thermostatic orbital shaker for two hours and then centrifuged at 14000 rpm, 5 min and filtered through HTS filter plates using a vacuum manifold. The filtrates of test compounds were diluted 2-fold with acetonitrile with 2% DMSO before measuring. In parallel, compound dilutions in 50% acetonitrile/buffer were prepared to the theoretical concentrations of 0 μM (blank), 100 μM, 200 μM and 400 μM with 2% final DMSO to generate calibration curves.
Ondansetron (Sigma Aldrich USA, cat #03639) was used as a reference to control proper assay performance. 200 μl of each sample were transferred to a 96-well plate and solubility was measured in a 200-550 nm range (in steps of 5 nm). The measurements were performed using a Spectra Max Plus reader in UV-Vis mode. Acquisition and analysis of the data were performed using SoftMax Pro v.5.4 (Molecular Devices) and Excel 2010 data analysis software. Proper absorbance wavelengths for calculations were selected for each compound manually based on absorbance maximums (absolute absorbance unit values for the minimum and maximum concentration points within 0-3 OD range). Each of the final datasets was additionally visually evaluated by the operator and goodness of fit (R2) is calculated for each calibration curve.

[2] = Liver microsomal stability, mouse; type: in vitro ADME; settings: male, pH 7.4, liver microsomes
Procedure: Mouse hepatic microsomes were isolated from pooled (50), perfused livers of male Balb/c mice. Rat hepatic microsomes were isolated from pooled (15), perfused livers of male Wistar rats. Isolation was performed according to the standard protocol (Hill, J. R. in Current Protocols in Pharmacology 7.8.1-7.8.11, Wiley Interscience, 2003). The batches of microsomes were tested for quality control using Imipramine, Propranolol and Verapamil as reference compounds.
as §1
Mouse hepatic microsomes were isolated from pooled, perfused livers of male CD1 mice. Rat hepatic microsomes were isolated from pooled, perfused livers of male Sprague Dawley rats. Dog hepatic microsomes were isolated from pooled, perfused livers of male Beagle dogs. The batches of microsomes were tested for quality control using Testosterone, Propranolol and Caffeine as reference compounds.
as §2, §3, §4, §5

[3] = aqueous buffer, kinetic solubility, phosphate-buffered saline pH 7.4, 2% DMSO, 25° C., two hours, read-out: PBS solubility, pH 7.4
[4] = citrate buffer, 25 °C, pH 3, aqueous buffer, read-out: Citrate buffer solubility, pH 3.0

microsomal CLint [1]	solubility at 2 h (Kinetic solubility; [3])	solubility at 2 h (Kinetic solubility; [4])	microsomal CLint [2]	SMILES
37 µL/min/mg	318 µM (≈ 176 µg/mL)	≥ 400 µM	33 µL/min/mg	CCCCOC(=O)NS(=O)(=O)c1ccc(C(F)(F)F)cc1N1CCN(Cc2nc3ccccc3n2C)CC1 [Compound A-09, butyl N-[2-[4-[(1-methylbenzimidazol-2-yl)methyl]piperazin-1-yl]-4-(trifluoromethyl)phenyl]sulfonylcarbamate]
99 µL/min/mg	≥ 400 µM	≥ 400 µM	69 µL/min/mg	CCCCNC(=O)NS(=O)(=O)c1ccc(C(F)(F)F)cc1N1CCN(Cc2nc3ccccc3n2C)CC1 [Compound A-10, 1-butyl-3-[2-[4-[(1-methylbenzimidazol-2-yl)methyl]piperazin-1-yl]-4-(trifluoromethyl)phenyl]sulfonyl-urea]
259 µL/min/mg	54 µM (≈ 26.9 µg/mL)	≥ 400 µM	157 µL/min/mg	CCCCNC(=O)NS(=O)(=O)c1ccc(C)cc1N1CCN(Cc2nc3ccccc3n2C)CC1 [Compound A-12, 1-butyl-3-[4-methyl-2-[4-[(1-methylbenzimidazol-2-yl)methyl]piperazin-1-yl]phenyl]sulfonyl-urea]
24 µL/min/mg	≥ 400 µM	≥ 400 µM	20 µL/min/mg	CC(C)Cc1ccc(-c2nn[nH]n2)c(N2CCN(Cc3nc4ccccc4n3C)CC2)c1 [Compound A-20, 2-[[4-[5-isobutyl-2-(2H-tetrazol-5-yl)-phenyl]piperazin-1-yl]methyl]-1-meth-yl-benzimidazole]
8 µL/min/mg	≥ 400 µM	≥ 400 µM	9 µL/min/mg	CC(C)Oc1ccc(-c2nn[nH]n2)c(N2CCN(Cc3nc4ccccc4n3C)CC2)c1 [Compound A-24, 2-[[4-[5-isopropoxy-2-(2H-tetrazol-5-yl)phenyl]piperazin-1-yl]methyl]-1-methyl-benzimidazole]
8 µL/min/mg	≥ 400 µM	40 µM (≈ 17.8 µg/mL)	16 µL/min/mg	CC(C)Cc1ccc(-c2nn[nH]n2)c(N2CCN(Cc3nc4ccccc4c(=O)[nH]3)CC2)c1 [Compound A-31, 2-[[4-[5-isobutyl-2-(2H-tetrazol-5-yl)phenyl]piperazin-1-yl]methyl]-3H-quinazolin-4-one]
10 µL/min/mg	394 µM (≈ 176 µg/mL)	399 µM (≈ 178 µg/mL)	6 µL/min/mg	CC(C)Oc1ccc(-c2nn[nH]n2)c(N2CCN(Cc3nc4ccccc4c(=O)[nH]3)CC2)c1 [Compound A-32]
12 µL/min/mg	≥ 400 µM	4 µM (≈ 1.74 µg/mL)	4 µL/min/mg	CC(C)Oc1ccc(-c2nn[nH]n2)c(N2CCN(Cc3nc4ccccc4s3)CC2)c1 [Compound A-51, 2-[[4-[5-isoprop-oxy-2-(2H-tetrazol-5-yl)phenyl]piper-azin-1-yl]methyl]-1,3-benzothiazole]
15 µL/min/mg			7 µL/min/mg	Cc1cc(CN2CCN(c3cc(CC(C)C)ccc3-c3nn[nH]n3)CC2)no1 [Compound A-82, 3-[[4-[5-isobutyl-2-(2H-tetrazol-5-yl)phenyl]piperazin-1-yl]methyl]-5-methyl-isoxazole]
6 µL/min/mg			11 µL/min/mg	CC(C)Cc1ccc(-c2nn[nH]n2)c(N2CCN(Cc3nccn3C)CC2)c1 [Compound A-83, 1-[5-isobutyl-2-(2H-tetrazol-5-yl)-phenyl]-4-[(1-meth-ylimidazol-2-yl)-methyl]piperazine]
40 µL/min/mg			17 µL/min/mg	CC(C)Cc1ccc(-c2nn[nH]n2)c(N2CCN(Cc3ccnn3C)CC2)c1 [Compound A-84, 1-[5-isobutyl-2-(2H-tetrazol-5-yl)phenyl]-4-[(1-methylpyrazol-5-yl)methyl]piperazine]
6 µL/min/mg			7 µL/min/mg	CC(C)Cc1ccc(-c2nn[nH]n2)c(N2CCN(Cc3ncccn3)CC2)c1 [Compound A-88]
7 µL/min/mg	≥ 400 µM	≥ 400 µM	10 µL/min/mg	CC(C)Cc1ccc(-c2nn[nH]n2)c(N2CCN(Cc3cccnn3)CC2)c1 [Compound A-90, 3-[[4-[5-isobutyl-2-(2H-tetrazol-5-yl)phenyl]piperazin-1-yl]methyl]pyridazine]
4 µL/min/mg	376 µM (≈ 154 µg/mL)	356 µM (≈ 146 µg/mL)	5 µL/min/mg	CC(C)Cc1cc(F)c(-c2nn[nH]n2)c(N2CCN(Cc3cccnn3)C(C)C2)c1 (centres unmarked) [Compound A-173, 3-[[4-[3-fluoro-5-isobutyl-2-(2H-tetrazol-5-yl)phenyl]-2-methyl-piperazin-1-yl]methyl]pyridazine]
< 6.6 µL/min/mg	385 µM (≈ 158 µg/mL)	356 µM (≈ 146 µg/mL)	15.3 µL/min/mg	CC(C)Cc1cc(F)c(-c2nn[nH]n2)c(N2CCN(Cc3cccnn3)[C@@H](C)C2)c1 [Compound A-174, 3-[[(2S)-4-[3-fluoro-5-isobutyl-2-(2H-tetrazol-5-yl)phenyl]-2-methyl-piperazin-1-yl]methyl]pyridazine]
12 µL/min/mg	≥ 400 µM	388 µM (≈ 165 µg/mL)	6 µL/min/mg	CCC1CN(Cc2cccnn2)CCN1c1cc(CC(C)C)cc(F)c1-c1nn[nH]n1 (centres unmarked) [Compound A-181, 3-[[3-ethyl-4-[3-fluoro-5-isobutyl-2-(2H-tetrazol-5-yl)phenyl]piperazin-1-yl]methyl]pyridazine]
< 6.6 µL/min/mg				CC(C)Cc1cc(F)c(-c2nn[nH]n2)c(N2CCN(Cc3ccccn3)[C@@H](C)C2)c1 [Compound A-217, (2S)-4-[3-fluoro-5-isobutyl-2-(2H-tetrazol-5-yl)phenyl]-2-methyl-1-(2-pyridylmethyl)piperazine]
18.2 µL/min/mg				Cc1cnc(CN2CCN(c3cc(CC(C)C)cc(F)c3-c3nn[nH]n3)C[C@@H]2C)s1 [Compound A-223, 2-[[(2S)-4-[3-fluoro-5-isobutyl-2-(2H-tetrazol-5-yl)phenyl]-2-methyl-piperazin-1-yl]methyl]-5-methyl-thiazole]

SMILES	microsomal CLint [1]	solubility at 2 h (Kinetic solubility; [3])	solubility at 2 h (Kinetic solubility; [4])	microsomal CLint [2]
CCC1CN(c2cc(CC(C)C)cc(F)c2-c2nn[nH]n2)CCN1Cc1cccnn1 (centres unmarked) [Compound A-178, 3-[[2-ethyl-4-[3-fluoro-5-isobutyl-2-(2H-tetrazol-5-yl)phenyl]piperazin-1-yl]methyl]pyridazine]	20 µL/min/mg	≥ 400 µM	≥ 400 µM	15 µL/min/mg
